Patent US12662479B2 (Foghorn Therapeutics Inc., priority 2020, dated 2026)

Legend:
[1] = target: T1, HiBit-BRG1 fusion protein (Homo sapiens, UniProt P51532); test: HiBiT-BRG1 cell-based degradation assay (Nano-Glo HiBiT Lytic Detection, 24 h); conditions: HeLa cells expressing HiBit-BRG1 and LgBit; for DC50: read-out: BRG1 HiBit Degradation IC50; for Dmax: HeLa, top dose 30 μM, read-out: BRG1 HiBit Degradation Maximum measured
T1 construct: expressed in transfected cells
Procedure, shortened: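 Degradation is scaled from DMSO-treated cells (0%) to cells given 2 μM of a known BRM/BRG1 degrader (100%). HeLa cells stably carrying HiBiT-BRG1 plus LgBiT (5000/well) were lysed with Nano-Glo HiBiT detection reagent, shaken 10 min at RT, and luminescence read.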

[2] = target: T2, HiBit-BRM fusion protein (Homo sapiens, UniProt P51531); test: HiBiT-BRM cell-based degradation assay (Nano-Glo HiBiT Lytic Detection, 24 h); conditions: HeLa cells expressing HiBiT-BRM; for DC50: read-out: BRM HiBit Degradation IC50; for BRM HiBit Degradation Maximum measured: top dose 30 μM
T2 construct: expressed in transfected cells
Procedure, shortened: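 Stable HiBiT-BRM HeLa line; 24 h compound exposure, top final 30 μM, 3-fold, 10 pts in duplicate. Lytic HiBiT/LgBiT luminescence readout. % degradation vs DMSO (0%) and 2 μM known BRM/BRG1 degrader (100%).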

T1 sequence (P51532 whole entry, the tested form may be a part): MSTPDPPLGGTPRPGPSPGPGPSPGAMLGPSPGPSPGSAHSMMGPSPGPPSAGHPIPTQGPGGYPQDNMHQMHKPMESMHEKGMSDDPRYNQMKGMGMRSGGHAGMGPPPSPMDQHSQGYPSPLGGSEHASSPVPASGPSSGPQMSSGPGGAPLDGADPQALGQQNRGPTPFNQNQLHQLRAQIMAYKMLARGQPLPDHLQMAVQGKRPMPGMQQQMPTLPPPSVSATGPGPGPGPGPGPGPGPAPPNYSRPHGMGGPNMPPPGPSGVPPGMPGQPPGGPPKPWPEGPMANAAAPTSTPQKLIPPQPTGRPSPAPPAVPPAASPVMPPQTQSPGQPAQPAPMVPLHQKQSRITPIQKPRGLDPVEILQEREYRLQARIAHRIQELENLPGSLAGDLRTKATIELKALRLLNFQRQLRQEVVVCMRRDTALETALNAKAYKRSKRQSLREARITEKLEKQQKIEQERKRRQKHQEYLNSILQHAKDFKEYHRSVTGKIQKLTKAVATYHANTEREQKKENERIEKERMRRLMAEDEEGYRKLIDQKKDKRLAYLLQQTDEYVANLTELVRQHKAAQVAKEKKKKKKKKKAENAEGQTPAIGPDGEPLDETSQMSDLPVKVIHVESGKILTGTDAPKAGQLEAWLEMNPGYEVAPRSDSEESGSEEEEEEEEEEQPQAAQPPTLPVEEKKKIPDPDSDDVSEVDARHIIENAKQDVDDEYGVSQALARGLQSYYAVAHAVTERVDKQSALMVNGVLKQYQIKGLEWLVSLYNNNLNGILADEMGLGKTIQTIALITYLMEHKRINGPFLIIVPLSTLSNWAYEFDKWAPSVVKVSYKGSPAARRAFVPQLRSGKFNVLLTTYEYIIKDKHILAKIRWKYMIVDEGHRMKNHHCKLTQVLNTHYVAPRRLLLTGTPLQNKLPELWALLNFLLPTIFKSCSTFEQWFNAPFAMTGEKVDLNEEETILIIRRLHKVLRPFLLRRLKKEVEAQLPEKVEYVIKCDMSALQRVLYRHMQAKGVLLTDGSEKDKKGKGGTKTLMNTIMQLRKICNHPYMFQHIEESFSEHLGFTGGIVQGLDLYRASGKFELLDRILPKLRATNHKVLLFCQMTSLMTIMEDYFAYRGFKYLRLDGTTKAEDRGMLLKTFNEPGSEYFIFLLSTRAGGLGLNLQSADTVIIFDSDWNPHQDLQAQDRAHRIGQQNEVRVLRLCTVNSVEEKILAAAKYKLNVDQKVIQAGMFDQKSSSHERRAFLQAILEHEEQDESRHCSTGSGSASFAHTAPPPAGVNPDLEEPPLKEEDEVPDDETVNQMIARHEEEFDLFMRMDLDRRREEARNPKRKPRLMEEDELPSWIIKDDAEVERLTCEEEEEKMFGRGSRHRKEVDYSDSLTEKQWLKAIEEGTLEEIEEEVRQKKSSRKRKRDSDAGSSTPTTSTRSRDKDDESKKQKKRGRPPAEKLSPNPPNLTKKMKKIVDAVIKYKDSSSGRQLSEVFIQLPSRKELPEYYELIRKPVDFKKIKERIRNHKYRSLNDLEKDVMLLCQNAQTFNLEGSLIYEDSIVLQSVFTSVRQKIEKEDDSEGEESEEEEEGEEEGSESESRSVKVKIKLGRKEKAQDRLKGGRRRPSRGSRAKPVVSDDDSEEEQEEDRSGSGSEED
T2 sequence (P51531 whole entry, the tested form may be a part): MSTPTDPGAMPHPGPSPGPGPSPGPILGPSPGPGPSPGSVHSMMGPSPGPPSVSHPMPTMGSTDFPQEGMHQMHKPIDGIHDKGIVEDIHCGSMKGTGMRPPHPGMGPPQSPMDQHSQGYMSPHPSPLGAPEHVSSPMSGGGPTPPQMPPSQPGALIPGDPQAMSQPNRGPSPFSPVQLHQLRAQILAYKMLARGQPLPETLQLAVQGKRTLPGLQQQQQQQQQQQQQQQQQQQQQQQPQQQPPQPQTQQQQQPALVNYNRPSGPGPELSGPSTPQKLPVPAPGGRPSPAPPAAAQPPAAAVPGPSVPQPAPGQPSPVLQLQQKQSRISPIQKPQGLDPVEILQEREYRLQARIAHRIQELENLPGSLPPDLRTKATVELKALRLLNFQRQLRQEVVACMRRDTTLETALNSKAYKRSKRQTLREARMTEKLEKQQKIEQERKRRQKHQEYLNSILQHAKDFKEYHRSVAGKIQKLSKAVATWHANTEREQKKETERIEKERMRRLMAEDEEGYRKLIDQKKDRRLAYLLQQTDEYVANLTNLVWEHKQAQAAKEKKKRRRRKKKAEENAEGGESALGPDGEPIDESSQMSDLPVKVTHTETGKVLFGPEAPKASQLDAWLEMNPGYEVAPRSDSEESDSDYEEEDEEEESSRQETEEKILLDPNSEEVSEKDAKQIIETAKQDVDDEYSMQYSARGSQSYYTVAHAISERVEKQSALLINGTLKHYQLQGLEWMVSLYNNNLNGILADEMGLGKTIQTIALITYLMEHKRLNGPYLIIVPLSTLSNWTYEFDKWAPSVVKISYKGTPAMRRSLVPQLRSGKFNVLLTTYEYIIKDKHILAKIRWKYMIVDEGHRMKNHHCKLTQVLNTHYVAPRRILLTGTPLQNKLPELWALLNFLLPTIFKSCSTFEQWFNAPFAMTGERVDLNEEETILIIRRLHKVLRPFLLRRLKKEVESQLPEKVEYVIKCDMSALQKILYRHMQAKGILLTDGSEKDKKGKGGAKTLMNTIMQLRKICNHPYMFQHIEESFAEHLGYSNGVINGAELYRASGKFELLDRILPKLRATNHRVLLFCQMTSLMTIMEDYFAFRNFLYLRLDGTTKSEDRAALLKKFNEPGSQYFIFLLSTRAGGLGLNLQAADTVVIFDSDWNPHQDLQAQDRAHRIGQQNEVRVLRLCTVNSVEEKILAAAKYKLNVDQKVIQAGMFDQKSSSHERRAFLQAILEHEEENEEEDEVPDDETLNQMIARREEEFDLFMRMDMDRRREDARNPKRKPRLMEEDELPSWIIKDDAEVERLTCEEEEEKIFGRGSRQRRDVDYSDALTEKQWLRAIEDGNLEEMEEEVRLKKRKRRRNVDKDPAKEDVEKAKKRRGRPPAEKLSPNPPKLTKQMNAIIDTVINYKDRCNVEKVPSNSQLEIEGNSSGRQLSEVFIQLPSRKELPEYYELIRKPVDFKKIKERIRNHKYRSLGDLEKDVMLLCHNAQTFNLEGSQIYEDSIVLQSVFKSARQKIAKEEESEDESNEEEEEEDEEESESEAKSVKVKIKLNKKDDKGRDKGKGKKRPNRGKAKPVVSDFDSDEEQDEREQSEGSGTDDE

SMILES	DC50 [1]	Dmax [1]	DC50 [2]	BRM HiBit Degradation Maximum measured [2]
CS(=O)(=O)n1ccc(C(=O)N[C@@H](CCOCCCC(=O)NCCOC2CN(c3ccc4c(c3)C(=O)N(C3CCC(=O)NC3=O)C4=O)C2)C(=O)Nc2nc(-c3ccccc3)cs2)c1 (stereo partly drawn) [Compound 278, (2S)-4-(3-[[2-([1-[2-(2,6-dioxopiperidin-3-yl)-1,3-dioxoisoindol-5-yl]azetidin-3-yl]oxy)ethyl]carbamoyl]propoxy)-2-[(1-methanesulfonylpyrrol-3-yl)formamido]-N-(4-phenyl-1,3-thiazol-2-yl)-butanemide]	> 10 µM	< 50%	> 10 µM	C (‘C’ = Maximum degradation <50%)
CS(=O)(=O)n1ccc(C(=O)NCC(=O)Nc2nc(-c3cccc(-c4ccnc(N5CCN(C(=O)CCOCCOCCNc6cccc7c6C(=O)N(C6CCC(=O)NC6=O)C7=O)CC5)c4)c3)cs2)c1 (centres unmarked) [Compound 31, N-[2-[[4-[3-[2-[4-[3-[2-[2-[[2-(2,6-dioxo-3-piperidyl)-1,3-dioxo-isoindolin-4-yl]amino]ethoxy]ethoxy]propanoyl]piperazin-1-yl]-4-pyridyl]phenyl]thiazol-2-yl]amino]-2-oxo-ethyl]-1-methylsulfonyl-pyrrole-3-carboxamide]	0.1 to 1 µM	> 75%	0.1 to 1 µM	A (‘A’ = Maximum degradation >75%)
CS(=O)(=O)n1ccc(C(=O)N[C@@H](COCc2ccc(C(=O)N3CC4(CCN(CCCNc5ccc6c(c5)C(=O)N(C5CCC(=O)NC5=O)C6=O)CC4)C3)cc2)C(=O)Nc2nc(-c3ccccc3)cs2)c1 (stereo partly drawn) [Compound 234, (2S)-3-([4-[7-(3-[[2-(2,6-dioxopiperidin-3-yl)-1,3-dioxoisoindol-5-yl]amino]propyl)-2,7-diazaspiro[3.5]nonane-2-carbonyl]phenyl]methoxy)-2-[(1-methanesulfonylpyrrol-3-yl)formamido]-N-(4-phenyl-1,3-thiazol-2-yl)propanamide]	0.1 to 1 µM	50 to 75%	0.1 to 1 µM	B (‘B’ = Maximum degradation ≥50% and ≤75%)
CS(=O)(=O)n1ccc(C(=O)NCC(=O)Nc2nc(-c3cccc(-c4ccnc(OCCNC(=O)C5CC5CNC(=O)COc5ccc6c(c5)C(=O)N(C5CCC(=O)NC5=O)C6=O)c4)c3)cs2)c1 (centres unmarked) [Compound 80, N-[2-[[4-[3-[2-[2-[[2-[[[2-[2-(2,6-dioxo-3-piperidyl)-1,3-dioxoisoindolin-5-yl]oxyacetyl]amino]methyl]cyclopropanecarbonyl]amino]ethoxy]-4-pyridyl]phenyl]thiazol-2-yl]amino]-2-oxoethyl]-1-methylsulfonyl-pyrrole-3-carboxamide]	> 10 µM	< 50%	> 10 µM	C (‘C’ = Maximum degradation <50%)
CS(=O)(=O)n1ccc(C(=O)N[C@@H](CCOCCCC(=O)NCCCCS(=O)(=O)CCCNc2cccc3c2C(=O)N(C2CCC(=O)NC2=O)C3=O)C(=O)Nc2nc(-c3ccccc3)cs2)c1 (stereo partly drawn) [Compound 275, (2S)-4-(3-[[4-(3-[[2-(2,6-dioxopiperidin-3-yl)-1,3-dioxoisoindol-4-yl]amino]propanesulfonyl)butyl]carbamoyl]propoxy)-2-[(1-methanesulfonylpyrrol-3-yl)formamido]-N-(4-phenyl-1,3-thiazol-2-yl)butanamide]	> 10 µM	< 50%	> 10 µM	C (‘C’ = Maximum degradation <50%)
CS(=O)(=O)n1ccc(C(=O)N[C@@H](CCCCNC(=O)CCN2CCN(c3ccc4c(c3)C(=O)N(C3CCC(=O)NC3=O)C4=O)CC2)C(=O)Nc2nc(-c3ccccc3)cs2)c1 (stereo partly drawn) [Compound 297, N-((2S)-6-(3-(4-(2-(2,6-dioxopiperidin-3-yl)-1,3-dioxoisoindolin-5-yl)piperazin-1-yl)propanamido)-1-oxo-1-((4-phenylthiazol-2-yl)amino)hexan-2-yl)-1-(methylsulfonyl)-1H-pyrrole-3-carboxamide]	> 10 µM	< 50%	> 10 µM	C (‘C’ = Maximum degradation <50%)
CS(=O)(=O)n1ccc(C(=O)NCC(=O)Nc2nc(-c3cccc(-c4ccnc(N5CCN(C(=O)CCOCCOCCNc6ccc7c(c6)C(=O)N(C6CCC(=O)NC6=O)C7=O)CC5)c4)c3)cs2)c1 (centres unmarked) [Compound 40, N-(2-((4-(3-(2-(4-(3-(2-(2-((2-(2,6-dioxopiperidin-3-yl)-1,3-dioxoisoindolin-5-yl)amino)ethoxy)ethoxy)propanoyl)piperazin-1-yl)pyridin-4-yl)phenyl)thiazol-2-yl)amino)-2-oxoethyl)-1-(methylsulfonyl)-1H-pyrrole-3-carboxamide]	< 0.1 µM	> 75%	< 0.1 µM	A (‘A’ = Maximum degradation >75%)
CS(=O)(=O)n1ccc(C(=O)NCC(=O)Nc2nc(C3CCCN(C(=O)CCCCCCCOc4cccc5c4C(=O)N(C4CCC(=O)NC4=O)C5=O)C3)cs2)c1 (centres unmarked) [Compound 148, N-{4-[1-(8-{[2-(2,6-dioxopiperidin-3-yl)-1,3-dioxo-2,3-dihydro-1H-isoindol-4-yl]oxy}octanoyl)piperidin-3-yl]-1,3-thiazol-2-yl}-2-[(1-methanesulfonyl-1H-pyrrol-3-yl)formamido]acetamide]	> 10 µM	< 50%	> 10 µM	C (‘C’ = Maximum degradation <50%)
Cc1ncsc1-c1ccc(CNC(=O)[C@@H]2C[C@@H](O)CN2C(=O)[C@@H](NC(=O)CCCCCC(=O)N2CCN(c3cc(-c4cccc(-c5csc(NC(=O)CNC(=O)c6ccn(S(C)(=O)=O)c6)n5)c4)ccn3)CC2)C(C)(C)C)cc1 [Compound 86, N-(2-((4-(3-(2-(4-(7-(((S)-1-((2S,4R)-4-hydroxy-2-((4-(4-methylthiazol-5-yl)benzyl)carbamoyl)pyrrolidin-1-yl)-3,3-dimethyl-1-oxobutan-2-yl)amino)-7-oxoheptanoyl)piperazin-1-yl)pyridin-4-yl)phenyl)thiazol-2-yl)amino)-2-oxoethyl)-1-(methylsulfonyl)-1H-pyrrole-3-carboxamide]	0.1 to 1 µM	50 to 75%	0.1 to 1 µM	B (‘B’ = Maximum degradation ≥50% and ≤75%)
CS(=O)(=O)n1ccc(C(=O)N[C@@H](COCc2ccc(C(=O)NCCOCCOCCOCCNC(=O)COc3cccc4c3C(=O)N(C3CCC(=O)NC3=O)C4=O)cc2)C(=O)Nc2nc(-c3ccccc3)cs2)c1 (stereo partly drawn) [Compound 236, N-((2S)-3-((4-((1-((2-(2,6-dioxopiperidin-3-yl)-1,3-dioxoisoindolin-4-yl)oxy)-2-oxo-6,9,12-trioxa-3-azatetradecan-14-yl)carbamoyl)benzyl)oxy)-1-oxo-1-((4-phenylthiazol-2-yl)amino)propan-2-yl)-1-(methylsulfonyl)-1H-pyrrole-3-carboxamide]	> 10 µM	< 50%	> 10 µM	C (‘C’ = Maximum degradation <50%)
CC(C)(C(=O)NCCCCCNc1cccc2c1C(=O)N(C1CCC(=O)NC1=O)C2=O)n1ccc(-c2cccc(-c3csc(NC(=O)CNC(=O)c4ccn(S(C)(=O)=O)c4)n3)c2)n1 (centres unmarked) [Compound 7, N-[2-[[4-[3-[1-[2-[5-[[2-(2,6-dioxo-3-piperidyl)-1,3-dioxo-isoindolin-4-yl]amino]pentylamino]-1,1-dimethyl-2-oxo-ethyl]pyrazol-3-yl]phenyl]thiazol-2-yl]amino]-2-oxo-ethyl]-1-methylsulfonyl-pyrrole-3-carboxamide]	> 10 µM	< 50%	> 10 µM	C (‘C’ = Maximum degradation <50%)
CS(=O)(=O)n1ccc(C(=O)N[C@@H](CCOCCCC(=O)N2CC(CN3CCN(c4ccc5c(c4)C(=O)N(C4CCC(=O)NC4=O)C5=O)CC3)C2)C(=O)Nc2nc(-c3ccccc3)cs2)c1 (stereo partly drawn) [Compound 221, (2S)-4-[4-[3-([4-[2-(2,6-dioxopiperidin-3-yl)-1,3-dioxoisoindol-5-yl]piperazin-1-yl]methyl)azetidin-1-yl]-4-oxobutoxy]-2-[(1-methanesulfonylpyrrol-3-yl)formamido]-N-(4-phenyl-1,3-thiazol-2-yl)butanamide]	> 10 µM	< 50%	> 10 µM	C (‘C’ = Maximum degradation <50%)
CS(=O)(=O)n1ccc(C(=O)N[C@@H](CCOCCCC(=O)NCCOc2cccc(OCCNc3cccc4c3C(=O)N(C3CCC(=O)NC3=O)C4=O)c2)C(=O)Nc2nc(-c3ccccc3)cs2)c1 (stereo partly drawn) [Compound 270, (2S)-4-[3-([2-[3-(2-[[2-(2,6-dioxopiperidin-3-yl)-1,3-dioxoisoindol-4-yl]amino]ethoxy)phenoxy]ethyl]carbamoyl)propoxy]-2-[(1-methanesulfonylpyrrol-3-yl)formamido]-N-(4-phenyl-1,3-thiazol-2-yl)butanamide]	> 10 µM	< 50%	> 10 µM	C (‘C’ = Maximum degradation <50%)
CS(=O)(=O)n1ccc(C(=O)NCC(=O)Nc2nc(-c3cccc(-c4ccnc(C5(C(=O)NCCOCCOCCNC(=O)COc6cccc7c6C(=O)N(C6CCC(=O)NC6=O)C7=O)CC5)c4)c3)cs2)c1 (centres unmarked) [Compound 128]	> 10 µM	< 50%	> 10 µM	C (‘C’ = Maximum degradation <50%)
